# Results taken from ChEMBL document CHEMBL1141145, “A chiral benzoquinolizine-2-carboxylic acid arginine salt active against vancomycin-resistant Staphylococcus aureus” (J Med Chem, 2005).
# Numbered stars: 1 amine (or outer) side, 2 acyl side, 3 side chain; on linkers, the order of the positions; unused ones are H or OH. Bridge positions count the residues as written; N and C are the ends. Square brackets hold non-standard residues; d marks the D form. Peptide text beside a SMILES is read from it. * marks the point of attachment. X1 = O=C1C[C@@H](C(=O)[*:2])N([*:1])C[C@H]1CS[C@@H]1CN2CCC1CC2; NMePhe(4-NMe2) = CN[C@@H](Cc1ccc(N(C)C)cc1)C(=O)O; Picolinoyl(3-OH) = O=C(c1ncccc1O)*; Phg = N[C@H](C(=O)O)c1ccccc1; dAbu = CC[C@@H](N)C(=O)O
# Tests used:
# physchem [1] = experiment: physchem
# physchem [2] = details: octanol/water, pH 2
# physchem [3] = experiment: physchem; remark: listed apart in the source
# physchem [4] = experiment: physchem; remark: listed apart in the source
# physchem [5] = details: octanol/water, pH 7.4
# Staphylococcus aureus [6] = experiment: Minimum inhibitory concentration against vancomycin-resistant Staphylococcus aureus (Hershey); assay type: functional
# Mus musculus [7] = experiment: Efficacy against mice infected with Staphylococcus aureus ATCC 25923 upon s.c. administration; assay type: functional; details: sc
# Mus musculus [8] = experiment: Efficacy against mice infected with MRSA-33 upon s.c. administration; assay type: functional; details: sc
# Staphylococcus aureus [9] = experiment: Minimum inhibitory concentration against Vancomycin intermediate Staphylococcus aureus MU 50; assay type: functional
# Staphylococcus aureus [10] = experiment: Minimum inhibitory concentration against vancomycin intermediate Staphylococcus aureus MU 3; assay type: functional
# Mus musculus [11] = experiment: Efficacy against mice infected with MRSA-32 upon s.c. administration; assay type: functional; details: MRSA-32, sc
# Staphylococcus aureus [12] = experiment: microbe, parasite or virus in culture
# Staphylococcus aureus [13] = experiment: Minimum inhibitory concentration against vancomycin intermediate Staphylococcus aureus MU 50; assay type: functional
# Staphylococcus aureus [14] = experiment: microbe, parasite or virus in culture; remark: listed apart in the source
# Staphylococcus aureus [15] = experiment: microbe, parasite or virus in culture; remark: listed apart in the source
# Staphylococcus aureus [16] = experiment: Mutant prevention concentration aganist methicillin resistant Staphylococcus aureus-5023 done for 48 hr at 37 degree C with compound; assay type: functional
# Staphylococcus aureus [17] = experiment: Frequency of resistance emergence for methicillin resistant Staphylococcus aureus-33; assay type: functional
# [18] = test system: Staphylococcus saprophyticus; experiment: Minimum inhibitory concentration against Staphylococcus saprophyticus ATCC 15305; assay type: functional
# Streptococcus agalactiae = experiment: Minimum inhibitory concentration against Streptococcus agalactiae ATCC 13813; assay type: functional
# Staphylococcus aureus [19] = experiment: Frequency of resistance emergence for methicillin resistant Staphylococcus aureus-5023; assay type: functional
# Streptococcus sanguinis = experiment: Minimum inhibitory concentration against Streptococcus sanguis ATCC 10556; assay type: functional
# [20] = test system: Staphylococcus haemolyticus; experiment: Minimum inhibitory concentration against Staphylococcus haemolyticus ATCC 29970; assay type: functional
# Pseudomonas aeruginosa = experiment: microbe, parasite or virus in culture; details: ATCC 27853
# Staphylococcus aureus [21] = experiment: Mutant prevention concentration against methicillin resistant Staphylococcus aureus-32 done for 48 h at 37 degree C with compound; assay type: functional
# Staphylococcus aureus [22] = experiment: Minimum inhibitory concentration against Staphylococcus aureus ATCC 25923; assay type: functional
# Streptococcus pyogenes = experiment: Minimum inhibitory concentration against Streptococcus pyogenes ATCC 19615; assay type: functional
# Enterococcus faecalis = experiment: Minimum inhibitory concentration against Enterococcus faecalis ATCC 29212; assay type: functional
# Staphylococcus aureus [23] = experiment: Mutant prevention concentration aganist methicillin resistant Staphylococcus aureus-33 done for 48 hr at 37 degree C with compound; assay type: functional
# Streptococcus pneumoniae [24] = experiment: microbe, parasite or virus in culture; details: ATCC 49619
# Escherichia coli = experiment: microbe, parasite or virus in culture; details: ATCC 25922
# Staphylococcus aureus [25] = experiment: Ratio of MPC to MIC aganist methicillin resistant Staphylococcus aureus-32; assay type: functional
# Staphylococcus aureus [26] = experiment: Frequency of resistance emergence for methicillin resistant Staphylococcus aureus-32; assay type: functional
# Phocaeicola vulgatus = experiment: Minimum inhibitory concentration against Bacteroides vulgatus ATCC 29327; assay type: functional
# Staphylococcus aureus [27] = experiment: Ratio of MPC to MIC against methicillin resistant Staphylococcus aureus-5023; assay type: functional
# Streptococcus pneumoniae [28] = experiment: microbe, parasite or virus in culture; details: ATCC 6303
# Klebsiella pneumoniae = experiment: Minimum inhibitory concentration against Klebsiella pneumoniae ATCC 10031; assay type: functional
# Staphylococcus aureus [29] = experiment: Ratio of MPC to MIC against methicillin resistant Staphylococcus aureus-33; assay type: functional
# Staphylococcus aureus [30] = experiment: Minimum inhibitory concentration against Staphylococcus aureus grlA mutant; assay type: functional
# [31] = target: DNA topoisomerase 4 subunit A (Staphylococcus aureus) (UniProt P0C1U9)
# DNA topoisomerase 4 subunit A (Staphylococcus aureus), sequence (P0C1U9 whole entry): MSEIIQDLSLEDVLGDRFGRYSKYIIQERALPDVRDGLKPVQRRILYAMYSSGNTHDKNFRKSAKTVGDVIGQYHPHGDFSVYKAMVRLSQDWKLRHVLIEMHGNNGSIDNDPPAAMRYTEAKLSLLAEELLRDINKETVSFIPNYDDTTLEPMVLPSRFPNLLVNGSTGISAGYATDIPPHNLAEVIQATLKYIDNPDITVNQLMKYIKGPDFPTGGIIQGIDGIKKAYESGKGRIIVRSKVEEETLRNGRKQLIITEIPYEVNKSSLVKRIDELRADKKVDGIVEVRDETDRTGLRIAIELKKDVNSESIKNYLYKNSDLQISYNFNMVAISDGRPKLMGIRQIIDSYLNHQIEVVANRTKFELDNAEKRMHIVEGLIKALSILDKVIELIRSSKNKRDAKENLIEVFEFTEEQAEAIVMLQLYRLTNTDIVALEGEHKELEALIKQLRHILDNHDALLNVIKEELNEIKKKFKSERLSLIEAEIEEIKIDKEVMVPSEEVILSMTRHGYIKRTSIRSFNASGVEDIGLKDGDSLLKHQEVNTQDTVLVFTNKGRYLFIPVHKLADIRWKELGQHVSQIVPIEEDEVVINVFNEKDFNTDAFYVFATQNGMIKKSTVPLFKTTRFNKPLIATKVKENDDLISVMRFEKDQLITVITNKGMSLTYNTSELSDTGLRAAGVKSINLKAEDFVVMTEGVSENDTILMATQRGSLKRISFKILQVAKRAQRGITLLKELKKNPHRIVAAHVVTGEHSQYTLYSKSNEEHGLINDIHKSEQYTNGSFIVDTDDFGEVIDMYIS
# [32] = target: DNA gyrase (Staphylococcus aureus) (UniProt P0A0K8+P20831)
# DNA gyrase (Staphylococcus aureus), sequence (P0A0K8 2-644 limits assumed): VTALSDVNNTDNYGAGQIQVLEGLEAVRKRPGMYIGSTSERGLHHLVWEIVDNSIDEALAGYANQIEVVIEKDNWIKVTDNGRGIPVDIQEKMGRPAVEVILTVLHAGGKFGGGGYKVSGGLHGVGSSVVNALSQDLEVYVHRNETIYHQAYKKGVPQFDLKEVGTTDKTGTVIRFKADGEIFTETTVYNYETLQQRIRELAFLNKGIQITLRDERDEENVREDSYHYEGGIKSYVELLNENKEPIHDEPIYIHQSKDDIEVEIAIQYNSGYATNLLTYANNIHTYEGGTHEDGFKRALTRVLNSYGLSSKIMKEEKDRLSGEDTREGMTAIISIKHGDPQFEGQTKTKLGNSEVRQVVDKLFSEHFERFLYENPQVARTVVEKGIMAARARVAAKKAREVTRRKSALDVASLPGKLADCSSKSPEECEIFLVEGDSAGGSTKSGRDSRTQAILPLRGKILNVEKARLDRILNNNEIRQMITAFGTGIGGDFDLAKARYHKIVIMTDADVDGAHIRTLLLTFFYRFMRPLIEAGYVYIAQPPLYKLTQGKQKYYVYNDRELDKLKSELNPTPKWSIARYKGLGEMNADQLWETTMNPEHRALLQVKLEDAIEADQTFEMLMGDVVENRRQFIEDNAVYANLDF
# DNA gyrase (Staphylococcus aureus), sequence (P20831 whole entry partner): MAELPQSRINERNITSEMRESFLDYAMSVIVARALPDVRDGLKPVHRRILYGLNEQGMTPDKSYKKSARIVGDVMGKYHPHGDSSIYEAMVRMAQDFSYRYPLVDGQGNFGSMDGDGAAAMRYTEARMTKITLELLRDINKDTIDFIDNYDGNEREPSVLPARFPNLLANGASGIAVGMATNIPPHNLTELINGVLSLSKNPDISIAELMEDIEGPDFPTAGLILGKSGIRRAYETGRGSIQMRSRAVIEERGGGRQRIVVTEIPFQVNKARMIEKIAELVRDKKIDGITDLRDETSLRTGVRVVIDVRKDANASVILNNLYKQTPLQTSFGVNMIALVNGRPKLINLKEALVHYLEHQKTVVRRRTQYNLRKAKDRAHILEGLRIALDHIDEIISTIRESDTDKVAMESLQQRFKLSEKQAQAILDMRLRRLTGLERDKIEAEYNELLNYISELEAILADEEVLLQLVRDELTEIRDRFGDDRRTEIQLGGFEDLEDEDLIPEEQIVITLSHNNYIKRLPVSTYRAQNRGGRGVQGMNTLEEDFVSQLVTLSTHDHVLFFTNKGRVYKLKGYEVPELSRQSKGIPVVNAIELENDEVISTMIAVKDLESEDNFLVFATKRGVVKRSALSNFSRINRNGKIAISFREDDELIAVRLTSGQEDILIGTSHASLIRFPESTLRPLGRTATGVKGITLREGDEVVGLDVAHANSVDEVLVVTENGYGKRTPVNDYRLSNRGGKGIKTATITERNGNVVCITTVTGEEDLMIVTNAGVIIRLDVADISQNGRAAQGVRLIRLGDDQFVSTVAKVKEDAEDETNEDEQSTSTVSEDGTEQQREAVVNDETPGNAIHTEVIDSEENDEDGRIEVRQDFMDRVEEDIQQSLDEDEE
# Mus musculus [33] = experiment: Protection of mice infected with MRSA-32 cell suspension after oral administration of compound; assay type: functional; details: Mus musculus, MRSA-32, po; read-out: ED50
# Staphylococcus aureus [34] = experiment: Minimum inhibitory concentration against methicillin susceptible Staphylococcus aureus; assay type: functional; details: Staphylococcus aureus; read-out: MIC
# Rattus norvegicus = experiment: Amount of drug at which at 14 days of daily administration produced no venous blockage or phlebitis in rats; assay type: functional
smiles,measurement,setting,value
N[C@@H]1[C@H]2CN(c3nc4c(cc3F)c(=O)c(C(=O)O)cn4-c3ccc(F)cc3F)C[C@@H]12 [TROVAFLOXACIN],pKa,physchem [1],8.13
same,logD,physchem [2],-0.35
same,pKa,physchem [3],8.02
same,pKa,physchem [4],4.45
same,logD,physchem [5],0.42
CN[C@H](CC(C)C)C(=O)N[C@H]1C(=O)N[C@@H](CC(N)=O)C(=O)N[C@H]2C(=O)N[C@H]3C(=O)N[C@H](C(=O)N[C@H](C(=O)O)c4cc(O)cc(O)c4-c4cc3ccc4O)[C@H](O)c3ccc(c(Cl)c3)Oc3cc2cc(c3O[C@@H]2O[C@H](CO)[C@@H](O)[C@H](O)[C@H]2O[C@H]2C[C@](C)(N)[C@H](O)[C@H](C)O2)Oc2ccc(cc2Cl)[C@H]1O [VANCOMYCIN],MIC,Staphylococcus aureus [6],32 µg/mL
same,ED50,Mus musculus [7],6.11 mg/kg
same,ED50,Mus musculus [8],> 3.7 mg/kg
same,MIC,Staphylococcus aureus [9],16 µg/mL
same,MIC,Staphylococcus aureus [10],8 µg/mL
same,ED50,Mus musculus [11],> 2.18 mg/kg
CCN(CC)CCS(=O)(=O)[C@@H]1CCN2C(=O)c3coc(n3)CC(=O)C[C@H](O)/C=C(C)/C=C/CNC(=O)/C=C/[C@@H](C)[C@@H](C(C)C)OC(=O)[C@@H]12.CC[C@H]1NC(=O)[C@@H](NC(=O)c2ncccc2O)[C@@H](C)OC(=O)[C@H](c2ccccc2)NC(=O)[C@@H]2CC(=O)[C@H](CS[C@@H]3CN4CCC3CC4)CN2C(=O)[C@H](Cc2ccc(N(C)C)cc2)N(C)C(=O)[C@@H]2CCCN2C1=O [QUINUPRISTIN/DALFOPRISTIN] ({Picolinoyl(3-OH)}-T[dAbu]P[NMePhe(4-NMe2)][X1][Phg]; ester 1-C),MIC,Staphylococcus aureus [12],0.5 µg/mL
same,MIC,Staphylococcus aureus [6],1 µg/mL
same,MIC,Staphylococcus aureus [13],1 µg/mL
same,MIC,Staphylococcus aureus [10],1 µg/mL
same,MIC,Staphylococcus aureus [14],1 µg/mL
same,MIC,Staphylococcus aureus [15],1 µg/mL
COc1c(N2CCNC(C)C2)c(F)cc2c(=O)c(C(=O)O)cn(C3CC3)c12 (stereo not drawn) [GATIFLOXACIN],MPC,Staphylococcus aureus [16],8 µg/mL
same,FRE,Staphylococcus aureus [17],0.0041
same,MIC,[18],0.25 µg/mL
same,MIC,Streptococcus agalactiae,0.25 µg/mL
same,logD,physchem [2],-1.14
same,pKa,physchem [3],9.82
same,FRE,Staphylococcus aureus [19],3.51e-06
same,MIC,Streptococcus sanguinis,0.5 µg/mL
same,MIC,[20],0.06 µg/mL
same,pKa,physchem [4],5.97
same,MIC,Pseudomonas aeruginosa,4 µg/mL
same,MPC,Staphylococcus aureus [21],8 µg/mL
same,MIC,Staphylococcus aureus [22],0.1 µg/mL
same,MIC,Streptococcus pyogenes,0.25 µg/mL
same,logD,physchem [5],-0.79
same,MIC,Enterococcus faecalis,0.25 µg/mL
same,MPC,Staphylococcus aureus [23],14 µg/mL
same,MIC,Streptococcus pneumoniae [24],0.5 µg/mL
same,MIC,Escherichia coli,0.03 µg/mL
same,MPC/MIC,Staphylococcus aureus [25],2
same,FRE,Staphylococcus aureus [26],0.000451
same,MIC,Phocaeicola vulgatus,0.5 µg/mL
same,MPC/MIC,Staphylococcus aureus [27],2
same,MIC,Streptococcus pneumoniae [28],0.5 µg/mL
same,MIC,Klebsiella pneumoniae,8 ng/mL
same,MPC/MIC,Staphylococcus aureus [29],3.5
O=C(O)c1cn(C2CC2)c2cc(N3CCNCC3)c(F)cc2c1=O [CIPROFLOXACIN],MIC,[18],0.5 µg/mL
same,MIC,Streptococcus agalactiae,2 µg/mL
same,MIC,Streptococcus sanguinis,2 µg/mL
same,MIC,[20],0.25 µg/mL
same,MIC,Pseudomonas aeruginosa,1 µg/mL
same,MIC,Staphylococcus aureus [30],1 µg/mL
same,CC50,[31],2.5 µg/mL
same,MIC,Staphylococcus aureus [22],1 µg/mL
same,MIC,Streptococcus pyogenes,0.5 µg/mL
same,CC50,[32],50 µg/mL
same,MIC,Enterococcus faecalis,2 µg/mL
same,MIC,Escherichia coli,< 0.008 µg/mL
same,MIC,Phocaeicola vulgatus,8 µg/mL
same,MIC,Klebsiella pneumoniae,< 8 ng/mL
C[C@H]1CCc2c(N3CCC(O)CC3)c(F)cc3c(=O)c(C(=O)[O-])cn1c23.[Na+],ED50,Mus musculus [33],60 mg/kg
same,MIC,Staphylococcus aureus [34],0.03 µg/mL
same,NOEL,Rattus norvegicus,<250 mg/kg
C[C@H]1COc2c(N3CCN(C)CC3)c(F)cc3c(=O)c(C(=O)O)cn1c23.C[C@H]1COc2c(N3CCN(C)CC3)c(F)cc3c(=O)c(C(=O)O)cn1c23.O [LEVOFLOXACIN],MIC,[18],0.5 µg/mL
same,MIC,Streptococcus agalactiae,1 µg/mL
same,MIC,Streptococcus sanguinis,2 µg/mL
same,MIC,Staphylococcus aureus [12],16 µg/mL
same,MIC,[20],0.12 µg/mL
same,MIC,Staphylococcus aureus [6],32 µg/mL
same,ED50,Mus musculus [7],5.92 mg/kg
same,MIC,Staphylococcus aureus [22],1 µg/mL
same,ED50,Mus musculus [8],> 100 mg/kg
same,MIC,Staphylococcus aureus [9],8 µg/mL
same,MIC,Streptococcus pyogenes,1 µg/mL
same,MIC,Enterococcus faecalis,1 µg/mL
same,MIC,Phocaeicola vulgatus,1 µg/mL
same,MIC,Staphylococcus aureus [10],16 µg/mL
same,MIC,Klebsiella pneumoniae,8 ng/mL
same,MIC,Staphylococcus aureus [14],16 µg/mL
same,ED50,Mus musculus [11],> 100 mg/kg
same,MIC,Staphylococcus aureus [15],8 µg/mL
